Experiments:
MOLT-4 cells = assay: MOLT-4 cell viability, MTT assay; assay type: cell-based; settings: 48 h exposure
In short: (§1)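 Cells grown in RPMI 1640 with 10% heat-inactivated FBS at 37° C, 5% CO2, exposed 48 h to nine 3.16-fold serial compound dilutions in triplicate. MTT added for 4 h, SDS/HCl solubilisation overnight, absorbance at 540 nm; IC50 by four-parameter fit.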

H146 cells = assay: H146 cell viability, MTT assay; assay type: cell-based; settings: 48 h exposure
In short: as §1

Bcl-xL protein = molecular target: T1, Bcl-xL protein (Homo sapiens, UniProt Q07817, N197C); assay: Fluorescence quenching assay (PUMA peptide displacement); assay type: binding; settings: 1 nM protein, 400 nM peptide, 2 hours at 23° C.; KI determined from IC50
T1 construct: (2-197)[N197C]; His-His (two His8 stretches joined by a Gly/Ala/Ser/Thr linker)
T1 sequence (Q07817 2-197 N197C): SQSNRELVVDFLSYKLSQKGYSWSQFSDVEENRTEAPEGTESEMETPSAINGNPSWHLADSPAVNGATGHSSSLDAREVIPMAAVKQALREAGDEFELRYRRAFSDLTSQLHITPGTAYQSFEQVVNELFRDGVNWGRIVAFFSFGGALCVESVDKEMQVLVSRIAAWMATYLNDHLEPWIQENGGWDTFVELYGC
Excerpt: Fluorescence quenching assay measures the change in fluorescence intensity of C-terminally Cy5-labeled BCL-xL protein, His-His-(EK)-hs ? (2-197)[N197C] (UniProtKB® primary accession number Q07817-1) having an amino acid sequence (SEQ ID:03): [[…] […] […] […] […]] which is linked in C-terminal region to the amino acid X which corresponds to a cysteine labeled on the sulfur with Sulfo-Cyanine5 from Lumiprobe GmbH catalogue number 13380, upon binding of a C-terminally labeled peptide derived from PUMA (UniProtKB® primary accession number Q9BXH1) having an aminoacid sequence (SEQ ID:04): [[…]] which is linked in C-terminal region to the amino acid X′ where X′ is cysteine labeled on the sulfur with TQ5WS from AAT Bioquest catalogue number 2079.
The addition of a compound which binds competitively to the same site as the peptide will result in an increase in the fluorescence intensity of the protein due to displacement of the fluorescence quencher.
An 11-point serial dilution of each compound was prepared in DMSO the final buffer conditions were 10 mM 4-(2-hydroxyethyl)-1-piperazineethanesulfonic acid [HEPES], 150 mM NaCl, 0.05% Tween 20, pH 7.4 and 5% DMSO. The final protein concentration in the assay was 1 nM with the peptide present at 400 nM. The experiments were incubated for 2 hours at 23° C. before fluorescence intensity was measured on a Biotek SynergyNeo plate reader (Excitation 620 nm, emission 680 nm). […] The KI values were determined from the IC50 values according to Cer et al, Nucleic Acids Res, 2009, Jul. 1: 37(WebServer issue): W441-W445.

Compound | IC50 (MOLT-4 cells; Homo sapiens, MOLT-4, 48 h) [nM] | IC50 (H146 cells; Homo sapiens, NCI-H146, 48 h) [nM] | Ki (Bcl-xL protein) [nM] | IC50 (MOLT-4 cells) [nM] | IC50 (H146 cells) [nM]
CNC/C=C/c1ccc(OCCCc2sc(N(CCCCO)c3cc(C)c(Nc4nc5ccccc5s4)nn3)nc2C(=O)O)c(F)c1 [Example 185, 2-[[6-(1,3-Benzothiazol-2-ylamino)-5-methyl-pyridazin-3-yl]-(4-hydroxybutyl)amino]-5-[3-[2-fluoro-4-[(E)-3-(methylamino)prop-1-enyl]phenoxy]propyl]thiazole-4-carboxylic acid] | 16.8 | 7 | 0.0012 | – | –
Cc1cc(N(CCCC(O)C[N+]2(C)CCN(C)CC2)c2nc(C(=O)[O-])c(CCCOc3ccc(C#CCN(C)C)cc3F)s2)nnc1Nc1nc2ccccc2s1 (stereo not drawn) [Example 221, 2-[[6-(1,3-Benzothiazol-2-ylamino)-5-methyl-pyridazin-3-yl]-[5-(1,4-dimethylpiperazin-1-ium-1-yl)-4-hydroxy-pentyl]amino]-5-[3-[4-[3-(dimethylamino)prop-1-ynyl]-2-fluoro-phenoxy]propyl]thiazole-4-carboxylate] | 29.5 | 94.4 | 0.0017 | – | –
Cc1cc(N(C)c2nc(C(=O)O)c(CCCOc3ccc(C#CC(C)N4CCOCC4)cc3F)s2)nnc1Nc1nc2ccccc2s1 (single isomer, unassigned) [Example 208, 2-[[6-(1,3-Benzothiazol-2-ylamino)-5-methyl-pyridazin-3-yl]-methyl-amino]-5-[3-[2-fluoro-4-((3S or 3R)-morpholinobut-1-ynyl)phenoxy]propyl]thiazole-4-carboxylic acid] | – | – | 0.0088 | 0.753 | 7.33
Cc1cc(N(C)c2nc(C(=O)O)c(CCCOc3ccc(C45CC(CN(C)C)(C4)C5)cc3)s2)nnc1Nc1nc2ccccc2s1 [Example 234, 2-[[6-(1,3-Benzothiazol-2-ylamino)-5-methyl-pyridazin-3-yl]-methyl-amino]-5-[3-[4-[1-[(dimethylamino)methyl]-3-bicyclo[1.1.1]pentanyl]phenoxy]propyl]thiazole-4-carboxylic acid] | 3.8 | 15 | 0.0016 | – | –
Cc1cc(N(C)c2nc(C(=O)O)c(CCCOc3ccc(C#CCNCC[N+](C)(C)CCCS(=O)(=O)[O-])cc3F)s2)nnc1Nc1nc2ccccc2s1 [Example 218, 3-[2-[3-[4-[3-[2-[[6-(1,3-Benzothiazol-2-ylamino)-5-methyl-pyridazin-3-yl]-methyl-amino]-4-carboxy-thiazol-5-yl]propoxy]-3-fluoro-phenyl]prop-2-ynylamino]ethyl-dimethyl-ammonio]propane-1-sulfonate] | 270 | 891 | 0.0012 | – | –
Cc1cc(N(CCCCN2CCC(N)CC2)c2nc(C(=O)O)c(CCCOc3ccc(C#CCN(C)C)cc3F)s2)nnc1Nc1nc2ccccc2s1 [Example 175, 2-[4-(4-Amino-1-piperidyl)butyl-[6-(1,3-benzothiazol-2-ylamino)-5-methyl-pyridazin-3-yl]amino]-5-[3-[4-[3-(dimethylamino)prop-1-ynyl]-2-fluoro-phenoxy]propyl]thiazole-4-carboxylic acid] | 204 | 75 | 0.0011 | – | –
CNCC#Cc1ccc(OCCCc2sc(N(CCCN(C)C)c3cc(C)c(Nc4nc5ccccc5s4)nn3)nc2C(=O)O)c(F)c1 [Example 200] | 695 | 115 | 0.0077 | – | –
Cc1cc(N(C)c2nc(C(=O)O)c(CCCOc3ccc(C#CCN4CCOCC4)cc3F)s2)nnc1Nc1nc2ccccc2s1 [Example 198, 2-[[6-(1,3-Benzothiazol-2-ylamino)-5-methyl-pyridazin-3-yl]-methyl-amino]-5-[3-[2-fluoro-4-(3-morpholinoprop-1-ynyl)phenoxy]propyl]thiazole-4-carboxylic acid] | 1.59 | 1420 | 0.0073 | – | –
Cc1cc(N(CCCCC[N+](C)(C)CCCO)c2nc(C(=O)[O-])c(CCCOc3ccc(C#CCN(C)C)cc3F)s2)nnc1Nc1nc2ccccc2s1 [Example 225, 2-[[6-(1,3-Benzothiazol-2-ylamino)-5-methyl-pyridazin-3-yl]-[5-[3-hydroxypropyl(dimethyl)ammonio]pentyl]amino]-5-[3-[4-[3-(dimethylamino)prop-1-ynyl]-2-fluoro-phenoxy]propyl]thiazole-4-carboxylate] | 1080 | 351 | 0.0035 | – | –
Cc1cc(N(C)c2nc(C(=O)O)c(CCCOc3ccc(C#CCN(C)C)cc3)s2)nnc1Nc1nc2ccccc2s1 [Example 233, 2-[[6-(1,3-Benzothiazol-2-ylamino)-5-methyl-pyridazin-3-yl]-methyl-amino]-5-[3-[4-[3-(dimethylamino)prop-1-ynyl]phenoxy]propyl]thiazole-4-carboxylic acid] | 0.879 | 2.55 | 0.0043 | – | –
CNCCCCN(c1cc(C)c(Nc2nc3ccccc3s2)nn1)c1nc(C(=O)O)c(CCCOc2ccc(C#CCN(C)C)cc2F)s1 [Example 188, 2-[[6-(1,3-Benzothiazol-2-ylamino)-5-methyl-pyridazin-3-yl]-[4-(methylamino)butyl]amino]-5-[3-[4-[3-(dimethylamino)prop-1-ynyl]-2-fluoro-phenoxy]propyl]thiazole-4-carboxylic acid] | 3410 | 5.44 | 0.0018 | – | –
Cc1cc(N(CCCCCN2CCNCC2)c2nc(C(=O)O)c(CCCOc3ccc(C#CCN(C)C)cc3F)s2)nnc1Nc1nc2ccccc2s1 [Example 189, 2-[[6-(1,3-Benzothiazol-2-ylamino)-5-methyl-pyridazin-3-yl]-(5-piperazin-1-ylpentyl)amino]-5-[3-[4-[3-(dimethylamino)prop-1-ynyl]-2-fluoro-phenoxy]propyl]thiazole-4-carboxylic acid] | 171 | 94.8 | 0.0074 | – | –

Next, values leading:

IC50 (MOLT-4 cells; Homo sapiens, MOLT-4, 48 h) [nM] | IC50 (H146 cells; Homo sapiens, NCI-H146, 48 h) [nM] | Ki (Bcl-xL protein) [nM] | IC50 (MOLT-4 cells) [nM] | IC50 (H146 cells) [nM] | Compound
984 | 221 | 0.0035 | – | – | Cc1cc(N(CCCC(O)C[N+]2(C)CCCCC2)c2nc(C(=O)[O-])c(CCCOc3ccc(C#CCN(C)C)cc3F)s2)nnc1Nc1nc2ccccc2s1 (stereo not drawn) [Example 220, 2-[[6-(1,3-Benzothiazol-2-ylamino)-5-methyl-pyridazin-3-yl]-[4-hydroxy-5-(1-methylpiperidin-1-ium-1-yl)pentyl]amino]-5-[3-[4-[3-(dimethylamino)prop-1-ynyl]-2-fluoro-phenoxy]propyl]thiazole-4-carboxylate]
1640 | 437 | 0.0014 | – | – | CNCC#Cc1ccc(OCCCc2sc(N(CCCCC[N+](C)(C)CCO)c3cc(C)c(Nc4nc5ccccc5s4)nn3)nc2C(=O)[O-])c(F)c1 [Example 229, 2-[[6-(1,3-Benzothiazol-2-ylamino)-5-methyl-pyridazin-3-yl]-[5-[2-hydroxyethyl(dimethyl)ammonio]pentyl]amino]-5-[3-[2-fluoro-4-[3-(methylamino)prop-1-ynyl]phenoxy]propyl]thiazole-4-carboxylate]
96.4 | 11.9 | 0.0029 | – | – | Cc1cc(N(CCCCN)c2nc(C(=O)O)c(CCCOc3ccc(C#CCN(C)C)cc3F)s2)nnc1Nc1nc2ccccc2s1 [Example 192, 2-[4-Aminobutyl-[6-(1,3-benzothiazol-2-ylamino)-5-methyl-pyridazin-3-yl]amino]-5-[3-[4-[3-(dimethylamino)prop-1-ynyl]-2-fluoro-phenoxy]propyl]thiazole-4-carboxylic acid]
61 | 32.4 | 0.0014 | – | – | Cc1cc(N(C)c2nc(C(=O)[O-])c(CCCOc3ccc(C#CCNCC[N+](C)(C)C)cc3F)s2)nnc1Nc1nc2ccccc2s1 [Example 222, 2-[3-[4-[3-[2-[[6-(1,3-Benzothiazol-2-ylamino)-5-methyl-pyridazin-3-yl]-methyl-amino]-4-carboxy-thiazol-5-yl]propoxy]-3-fluoro-phenyl]prop-2-ynylamino]ethyl-trimethyl-ammonium]
2180 | 1160 | 0.002 | – | – | CNCC#Cc1ccc(OCCCc2sc(N(CCCCCC[N+](C)(C)C)c3cc(C)c(Nc4nc5ccccc5s4)nn3)nc2C(=O)[O-])c(F)c1 [Example 224, 2-[[6-(1,3-Benzothiazol-2-ylamino)-5-methyl-pyridazin-3-yl]-[6-(trimethylammonio)hexyl]amino]-5-[3-[2-fluoro-4-[3-(methylamino)prop-1-ynyl]phenoxy]propyl]thiazole-4-carboxylate]
2200 | 83.8 | 0.0028 | – | – | Cc1cc(N(CCCCCN)c2nc(C(=O)O)c(CCCOc3ccc(C#CCN(C)C)cc3F)s2)nnc1Nc1nc2ccccc2s1 [Example 191, 2-[5-Aminopentyl-[6-(1,3-benzothiazol-2-ylamino)-5-methyl-pyridazin-3-yl]amino]-5-[3-[4-[3-(dimethylamino)prop-1-ynyl]-2-fluoro-phenoxy]propyl]thiazole-4-carboxylic acid]

Reference: patent publication US12649733B2, “3,6-diamino-pyridazin-3-yl derivatives, pharmaceutical compositions containing them and their uses as pro-apoptotic agents” (LES LABORATOIRES SERVIER, priority 2019, dated 2026)
